Measured values reported in the supplement of paper PMC10627819.

How the values were obtained:
S. pneumoniae D39V [1] = assay: fitness (endpoint OD595 vs no drug) (fraction); higher = more growth
Summary of the method: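 Plates with 384 wells were inoculated at OD595 0.01 using 30 µl of TSB, LB Lennox or CY, or 55 µl for S. pneumoniae. Incubation was at 37 °C, with OD595 measured every 30 min for 14 h. Fitness is the stationary-phase transition optical density over the robust mean of no-drug control wells, after first-reading background subtraction; it is capped at 1.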

B. subtilis 168 = assay: Bliss interaction score (quartile over a dose matrix) (fitness difference); higher = more antagonism (negative = synergy)
Summary of the method: (§1)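 Fitness was OD595 at entry into stationary phase divided by the plate's robust no-drug mean and capped at 1; single-drug fitness was inferred from combination data. The Bliss score is observed minus expected (product) fitness, summarised by quartiles over technical, biological and donor/recipient replicates.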

S. aureus DSM 20231 = assay: as above
Summary of the method: as §1

S. aureus Newman = assay: as above
Summary of the method: as §1

S. pneumoniae D39V [2] = assay: as above
Summary of the method: as §1
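Throughout, for Bliss interaction score (quartile over a dose matrix): first quartile when negative (synergy) and third quartile when positive (antagonism).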

CC[C@H]1OC(=O)[C@H](C)[C@@H](O[C@H]2C[C@@](C)(OC)[C@@H](O)[C@H](C)O2)[C@H](C)[C@@H](O[C@@H]2O[C@H](C)C[C@H](N(C)C)[C@H]2O)[C@](C)(OC)C[C@@H](C)C(=O)[C@H](C)[C@@H](O)[C@]1(C)O [Clarithromycin] + C[n+]1ccc(-c2cc[n+](C)cc2)cc1 [Paraquat]
fitness, S. pneumoniae D39V [1], one replicate
Conditions | first compound 0.007812 µg/mL | first compound 0.01562 µg/mL | first compound 0.03125 µg/mL | first compound 0.0625 µg/mL | first compound 0.125 µg/mL | first compound 0.25 µg/mL
partner 1.5 µg/mL | 0.899 | 0.836 | 0.603 | 0.771 | 0.597 | 0.274
partner 3 µg/mL | 0.918 | 0.871 | 0.62 | 0.788 | 0.684 | 0.324
partner 6 µg/mL | 0.909 | 0.816 | 0.657 | 0.837 | 0.708 | 0.345

fitness, S. pneumoniae D39V [1]
Conditions | first compound 0.07 µg/mL | first compound 0.14 µg/mL | first compound 0.28 µg/mL
partner 1.5 µg/mL | 0.171 | 0.129 | 0.0703
partner 3 µg/mL | 0.171 | 0.103 | 0.0937
partner 6 µg/mL | 0.164 | 0.126 | 0.0698

Conditions | Bliss interaction score
B. subtilis 168 | -0.0322
S. aureus DSM 20231 | -0.0525
S. aureus Newman | -0.0377
S. pneumoniae D39V [2] | 0.0803

O=C1CN(/N=C/c2ccc([N+](=O)[O-])o2)C(=O)N1 [Nitrofurantoin] + CN[C@H](CC(C)C)C(=O)N[C@H]1C(=O)N[C@@H](CC(N)=O)C(=O)N[C@H]2C(=O)N[C@H]3C(=O)N[C@H](C(=O)N[C@H](C(=O)O)c4cc(O)cc(O)c4-c4cc3ccc4O)[C@H](O)c3ccc(c(Cl)c3)Oc3cc2cc(c3O[C@@H]2O[C@H](CO)[C@@H](O)[C@H](O)[C@H]2O[C@H]2C[C@](C)(N)[C@H](O)[C@H](C)O2)Oc2ccc(cc2Cl)[C@H]1O [Vancomycin]
fitness, S. pneumoniae D39V [1]
Conditions | first compound 1.285 µg/mL | first compound 2 µg/mL | first compound 2.57 µg/mL | first compound 4 µg/mL | first compound 8 µg/mL
partner 0.03125 µg/mL | – | 0.926 | – | 0.959 | 0.892
partner 0.0625 µg/mL | – | 0.882 | – | 0.959 | 0.894
partner 0.125 µg/mL | 0.969 | 0.748 | 0.973 | 0.851 | –
partner 0.25 µg/mL | 0.611 | – | 0.653 | – | –
partner 0.5 µg/mL | 0.0954 | – | 0.0768 | – | –

S. pneumoniae D39V [1], first compound 5.14 µg/mL, one replicate
Conditions | fitness
partner 0.125 µg/mL | 0.965
partner 0.25 µg/mL | 0.446
partner 0.5 µg/mL | 0.118

Conditions | Bliss interaction score
B. subtilis 168 | 0.0308
S. aureus DSM 20231 | 0.0253
S. aureus Newman | 0.0534
S. pneumoniae D39V [2] | 0.142

C[C@@H](O)[C@H]1C(=O)N2C(C(=O)O)=C(SCCNC=N)C[C@H]12 [Imipenem] + O=C1CN(/N=C/c2ccc([N+](=O)[O-])o2)C(=O)N1 [Nitrofurantoin]
fitness, S. pneumoniae D39V [1]
Conditions | first compound 0.005 µg/mL | first compound 0.0065 µg/mL | first compound 0.01 µg/mL | first compound 0.013 µg/mL | first compound 0.02 µg/mL | first compound 0.026 µg/mL
partner 1.285 µg/mL | 0.947 | – | 0.967 | – | 0.97 | –
partner 2 µg/mL | – | 0.931 | – | 0.882 | – | 0.842
partner 2.57 µg/mL | 0.946 | – | 0.944 | – | 0.955 | –
partner 4 µg/mL | – | 0.912 | – | 0.914 | – | 0.804
partner 8 µg/mL | – | 0.763 | – | 0.728 | – | 0.72

S. pneumoniae D39V [1], partner 5.14 µg/mL, one replicate
Conditions | fitness
first compound 0.005 µg/mL | 0.887
first compound 0.01 µg/mL | 0.941
first compound 0.02 µg/mL | 0.928

Conditions | Bliss interaction score
B. subtilis 168 | 0.0986
S. aureus DSM 20231 | 0.0253
S. aureus Newman | -0.0377
S. pneumoniae D39V [2] | 0.049
